Assay results as given in the supplement of paper PMC10307832.

Legend:
Experiment in all cases: relative viability (nuclei count vs DMSO), 5 days (fraction); higher = more cells survive
Cediranib + Olaparib = compound: COc1cc2c(Oc3ccc4[nH]c(C)cc4c3F)ncnc2cc1OCCCN1CCCC1 [Cediranib] + O=C(c1cc(Cc2n[nH]c(=O)c3ccccc23)ccc1F)N1CCN(C(=O)C2CC2)CC1 [Olaparib] (partner 8 µM)
Procedure, shortened: (§1)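 One day after seeding in 1536-well plates, lung cancer cell lines were dosed by pin tool. Dosing was either single-drug or a fixed anchor-drug dose plus five library-drug doses (not always all listed) in √10 steps. After 5 days, nuclei were stained in one fix-and-stain step and counted on 4× images, and relative viability is the nuclei count of treated wells over that of vehicle wells, given as the median of duplicate plates.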

Cediranib + Linsitinib = compound: COc1cc2c(Oc3ccc4[nH]c(C)cc4c3F)ncnc2cc1OCCCN1CCCC1 [Cediranib] + C[C@]1(O)C[C@@H](c2nc(-c3ccc4ccc(-c5ccccc5)nc4c3)c3c(N)nccn32)C1 [Linsitinib] (partner 1 µM)
Procedure, shortened: as §1

Cediranib + Decitabine = compound: COc1cc2c(Oc3ccc4[nH]c(C)cc4c3F)ncnc2cc1OCCCN1CCCC1 [Cediranib] + Nc1ncn([C@H]2C[C@H](O)[C@@H](CO)O2)c(=O)n1 [Decitabine] (partner 2 µM)
Procedure, shortened: as §1

Cediranib + Lapatinib = compound: COc1cc2c(Oc3ccc4[nH]c(C)cc4c3F)ncnc2cc1OCCCN1CCCC1 [Cediranib] + CS(=O)(=O)CCNCc1ccc(-c2ccc3ncnc(Nc4ccc(OCc5cccc(F)c5)c(Cl)c4)c3c2)o1 [Lapatinib] (partner 2 µM)
Procedure, shortened: as §1

Row | Cell Line | relative viability (Cediranib + Olaparib; first compound 0.04 µM) | relative viability (Cediranib + Olaparib; first compound 0.1265 µM) | relative viability (Cediranib + Olaparib; first compound 0.4 µM) | relative viability (Cediranib + Olaparib; first compound 1.265 µM) | relative viability (Cediranib + Olaparib; first compound 4 µM) | relative viability (Cediranib + Linsitinib; first compound 0.04 µM) | relative viability (Cediranib + Linsitinib; first compound 0.1265 µM) | relative viability (Cediranib + Linsitinib; first compound 0.4 µM) | relative viability (Cediranib + Linsitinib; first compound 4 µM) | relative viability (Cediranib + Decitabine; first compound 0.04 µM) | relative viability (Cediranib + Decitabine; first compound 0.1265 µM) | relative viability (Cediranib + Decitabine; first compound 0.4 µM) | relative viability (Cediranib + Decitabine; first compound 1.265 µM) | relative viability (Cediranib + Decitabine; first compound 4 µM) | relative viability (Cediranib + Lapatinib; first compound 0.04 µM) | relative viability (Cediranib + Lapatinib; first compound 0.1265 µM) | relative viability (Cediranib + Lapatinib; first compound 0.4 µM) | relative viability (Cediranib + Lapatinib; first compound 1.265 µM) | relative viability (Cediranib + Lapatinib; first compound 4 µM) | relative viability (Cediranib + Linsitinib; first compound 1.265 µM)
1 | ABC-1 | 0.875 | 0.997 | 0.823 | 1.14 | 0.726 | 0.656 | 0.97 | 0.799 | 0.786 | 0.866 | 1.11 | 1.19 | 1.05 | 1.04 | 1.24 | 1.39 | 1.14 | 1.06 | 1.24 | –
2 | BEN | 1.11 | 0.613 | 1.05 | 1.13 | 1.04 | 1.16 | 0.799 | 0.82 | 0.647 | 0.732 | 0.431 | 0.74 | 0.509 | 0.722 | 0.945 | – | 0.665 | 0.598 | 0.681 | 0.9
3 | COR-L23 | 0.429 | 0.333 | 0.291 | 0.377 | 0.309 | 1.08 | 0.871 | 0.939 | 1.14 | 0.528 | 0.44 | 0.402 | 0.332 | 0.484 | 1.1 | 0.899 | 0.895 | 0.892 | 1.32 | 0.806
4 | COR-L 105 | 0.737 | 0.657 | 0.715 | 0.707 | 0.687 | – | 0.909 | 0.946 | 0.938 | 0.65 | 0.676 | 0.629 | 0.601 | 0.729 | – | 0.304 | 0.361 | 0.339 | 0.337 | 0.972
5 | EKVX | 0.783 | 0.949 | 0.803 | – | 0.851 | 1.05 | 1.03 | 0.889 | 0.86 | 0.332 | 0.342 | 0.341 | – | 0.392 | 0.19 | 0.23 | 0.196 | 0.227 | 0.203 | 1
6 | EMC-BAC-2 | 0.474 | – | 0.476 | 0.502 | 0.402 | 0.872 | 0.832 | 0.799 | 0.837 | 0.953 | – | 0.989 | 0.918 | 1.04 | 0.925 | 0.804 | 0.88 | 0.816 | 0.868 | 0.777
7 | EPLC-272H | 0.896 | 0.831 | 0.8 | 0.964 | 0.688 | 1.17 | – | 1.16 | 1.29 | 0.352 | – | 0.338 | 0.406 | 0.354 | 0.834 | – | 0.862 | 0.77 | 0.671 | 1.18
8 | H3255 | 0.524 | 0.503 | 0.564 | 0.643 | 0.542 | 1.04 | 1.04 | 0.89 | 0.912 | 0.534 | – | 0.601 | – | 0.487 | 0.272 | 0.228 | 0.271 | 0.246 | 0.254 | 0.898
9 | HARA | 0.626 | 1.22 | 0.675 | 1.01 | 0.692 | 0.916 | 1.14 | 0.96 | 0.975 | 0.595 | 0.593 | 0.517 | 0.782 | 0.582 | 0.762 | 0.994 | 0.7 | 0.708 | 0.703 | 0.955
10 | HCC-15 | 0.706 | – | 0.705 | 0.759 | 0.759 | 0.873 | – | 0.793 | 1.02 | 0.645 | 0.433 | 0.575 | 0.688 | 0.644 | 0.898 | – | 0.806 | 1.01 | 0.897 | 0.947
11 | HCC-44 | 0.966 | 0.894 | 0.963 | 0.932 | 0.974 | 0.7 | – | 0.636 | 0.729 | 0.932 | 0.629 | 0.93 | 0.934 | 0.958 | 0.982 | – | 0.951 | 0.995 | 0.949 | 0.654
12 | HCC-78 | 0.963 | 1.01 | 0.83 | 0.96 | 1.04 | 0.664 | 0.625 | 0.478 | 0.502 | 0.74 | 0.64 | 0.747 | 0.605 | 0.771 | 1 | 0.703 | 0.634 | 0.662 | 0.695 | 0.487
13 | HCC-366 | 0.413 | 0.354 | 0.392 | 0.362 | 0.395 | 0.65 | 0.634 | 0.582 | 1.05 | 0.379 | 0.318 | 0.305 | 0.364 | 0.338 | 1.08 | 0.479 | 0.983 | 0.957 | 1.23 | 0.542
14 | HCC-827 | 0.466 | 0.62 | 0.661 | 0.617 | 0.646 | 1.02 | – | 0.945 | 0.991 | 0.314 | 0.23 | 0.358 | 0.297 | 0.311 | 0.203 | – | 0.178 | 0.194 | 0.208 | 0.949
15 | HOP-62 | 0.385 | – | 0.425 | 0.503 | 0.688 | 1.11 | – | 1.04 | 1.18 | 0.255 | 0.246 | 0.215 | 0.207 | 0.203 | 1.15 | – | 0.879 | 1.01 | 1.35 | 0.853
16 | LC-2-ad | 0.737 | 0.689 | 0.664 | 0.732 | 0.839 | 0.871 | 0.831 | 0.842 | 0.806 | 0.803 | 0.779 | 0.784 | 0.744 | 0.822 | 1.07 | 0.656 | 0.94 | 1.02 | 0.731 | 0.771
17 | LCLC-97TM1 | 0.468 | – | 0.384 | 0.301 | 0.504 | 0.192 | – | 0.175 | 0.28 | 0.234 | – | 0.223 | 0.196 | 0.248 | 1.03 | – | 0.976 | 1.15 | 1.01 | 0.144
